Article PMC8807399, “Synthesis, Characterization, and in vivo Evaluation of a Novel Potent Autotaxin-Inhibitor” (Frontiers in Pharmacology, 2022)

Legend:
MMP-3 = target: T1, MMP-3 (Homo sapiens, UniProt P08254); test: Off-target screen MMP-3; format: biochemical; settings: 10 µM; single point, duplicates
T1 construct: purchased Eurofins CEREP SA

[1] = In vitro microsomal stability, mouse; format: in vitro ADME; settings: mouse microsomes, 1 µM; value of 10 = low clearance, essentially below detection limit
Procedure: (§1) Incubations of a test compound at a concentration of 1 µM with microsomes (0.5 mg/ml) from the appropriate species (human, mouse, or rat) plus cofactor NADPH were performed in 96-well plates at 37°C on a TECAN automated liquid handling system (Tecan Group Ltd., Männedorf, Switzerland). After pre-incubation of the test compound with the microsomes for 10 min, the enzymatic reaction was started by the addition of cofactors. Aliquots of the incubations are removed at 1, 3, 6, 9, 15, 25, 35, and 45 min and are then quenched with 1:3 (v/v) acetonitrile containing internal standards. Samples were then cooled and centrifuged before analysis of the supernatant by LC-MS/MS. Logarithmic Peak area ratios (test compound peak area/internal standard peak area) were plotted against incubation time and a linear fit made to the data with emphasis upon the initial rate of compound disappearance. The slope of the fit was then used to calculate the intrinsic clearance: Clint (µL/min/mg protein) = −slope (min-1) * 1,000/[protein concentration (mg/ml)].

HDAC3 = target: T2, HDAC3 (Homo sapiens, UniProt O15379); test: Off-target screen HDAC3; format: biochemical; settings: 10 µM; single point, duplicates
T2 construct: purchased Eurofins CEREP SA

GSK-3B = target: T3, GSK-3B (Homo sapiens, UniProt P49841); test: Off-target screen GSK-3B; format: biochemical; settings: 10 µM; single point, duplicates
T3 construct: purchased Eurofins CEREP SA

HIV-1 protease = test: Off-target screen HIV-1 protease; settings: 10 µM; single point, duplicates
Carbonic anhdrase II = target: T4, Carbonic anhdrase II (Homo sapiens, UniProt P00918); test: Off-target screen Carbonic anhydrase II; format: biochemical; settings: 10 µM; single point, duplicates
T4 construct: purchased Eurofins CEREP SA

MAO-A = target: T5, MAO-A (Homo sapiens, UniProt P21397); test: Off-target screen MAO-A; format: biochemical; settings: 10 µM; single point, duplicates
T5 construct: purchased Eurofins CEREP SA

Single dose PK in rats = format: in vivo; settings: rat
Procedure: Exposures in animals treated with ATX-inhibitors were determined from K2EDTA treated plasma by LC-MS/MS at different time points. 25 µL of plasma was used for a single concentration determination. Concentration/time profiles were analyzed with MS Excel (Microsoft Corporation, Redmond, WA, United States).
For PK experiments for 7, 13, 14, and 15, respectively, animals were treated either iv or po and exposures were determined at different time points after compound administration. Suitable formulations for 13 were, for example, NMP:Tris buffer pH 8.5 (30%/70%) for iv administration with a nominal drug concentration of 1 mg/ml (dose 2 mg/kg) and a suspension in NMP:gelatine/NaCl (10%/90%) for po administration with a nominal drug concentration of 2.5 mg/ml (dose 10 mg/kg). PK parameters in Table 2 were estimated from the concentration time profiles using Phoenix WinNonlin software (Certara, Princeton, NJ, United States).

PCP receptor = test: Off-target screen PCP receptor; settings: 10 µM; single point, duplicates
Alpha1A-adrenoreceptor = target: T6, Alpha1A-adrenoreceptor (Homo sapiens, UniProt P35348); test: Off-target screen Alpha1A-adrenoreceptor; format: binding; settings: 10 µM; single point, duplicates
T6 construct: purchased Eurofins CEREP SA

PPARγ [2] = target: T7, PPARγ (Homo sapiens, UniProt P37231); test: Off-target screen PPARγ, antagonist mode; format: cell-based; settings: 10 µM, single point, duplicates
T7 construct: purchased Eurofins CEREP SA

Adenosine A1 respetor = target: T8, Adenosine A1 respetor (Homo sapiens, UniProt P30542); test: Off-target screen Adenosine A1; format: binding; settings: 10 µM; single point, duplicates
T8 construct: purchased Eurofins CEREP SA

MMP-1 = target: T9, MMP-1 (Homo sapiens, UniProt P03956); test: Off-target screen MMP-1; format: biochemical; settings: 10 µM; single point, duplicates
T9 construct: purchased Eurofins CEREP SA

LPA3 receptor = target: T10, LPA3 receptor (Homo sapiens, UniProt Q9UBY5); test: Off-target screen LPA3 receptor, agonist mode; format: cell-based; settings: 10 µM, single point, duplicates
T10 construct: purchased Eurofins CEREP SA

Prostaglandin F receptor = target: T11, Prostaglandin F receptor (Homo sapiens, UniProt P43088); test: Off-target screen Prostaglandin F receptor; format: binding; settings: 10 µM; single point, duplicates
T11 construct: purchased Eurofins CEREP SA

MAO-B = target: T12, MAO-B (Homo sapiens, UniProt P27338); test: Off-target screen MAO-B; format: biochemical; settings: 10 µM; single point, duplicates
T12 construct: purchased Eurofins CEREP SA

S1P2 = target: T13, S1P2 (Homo sapiens, UniProt O95136); test: Off-target screen S1P2, agonist mode; format: cell-based; settings: 10 µM, single point, duplicates
T13 construct: purchased Eurofins CEREP SA

Dopamine D2 receptor = target: T14, Dopamine D2 receptor (Homo sapiens, UniProt P14416); test: Off-target screen Dopamine D2; format: binding; settings: 10 µM; single point, duplicates
T14 construct: purchased Eurofins CEREP SA

Glucocorticoid receptor = target: T15, Glucocorticoid receptor (Homo sapiens, UniProt P04150); test: Off-target screen Glucocorticoid receptor; format: binding; settings: 10 µM; single point, duplicates
T15 construct: purchased Eurofins CEREP SA

ZAP70 = target: T16, ZAP70 (Homo sapiens, UniProt P43403); test: Off-target screen ZAP70; format: biochemical; settings: 10 µM; single point, duplicates
T16 construct: purchased Eurofins CEREP SA

5HT2B = target: T17, 5HT2B (Homo sapiens, UniProt P41595); test: Off-target screen 5HT2B; format: binding; settings: 10 µM; single point, duplicates
T17 construct: purchased Eurofins CEREP SA

Sodium channel (site 2) = test: Off-target screen Sodium channel (site 2); settings: 10 µM; single point, duplicates
[3] = target: T18, Angiotensin II receptor 1 (Homo sapiens, UniProt P30556); test: Off-target screen Angiotensin II receptor 1; format: binding; settings: 10 µM; single point, duplicates
T18 construct: purchased Eurofins CEREP SA

plasma ATX = plasma ATX (Rattus norvegicus, UniProt Q64610); test: in vivo
Procedure: Plasma samples were collected in triplicates at 0, 1, 3, 6, and 24 h and were added to heparinated tubes and kept at 0°C until further processing. Sampling and immediate processing at 0°C is crucial for the measurements of basal levels, since at higher temperatures, LPA is produced rapidly according to the ATX activity in the sample. […] The other 2 aliquots were used to determine ATX activity by incubation of the sample at 37°C for 4 h, followed again by analysis of LPA levels in the same way as for the basal LPA levels.
For all doses (3, 10, and 30 mg/kg po), 5 animals/group were used. […] Values are mean ± SD.
To better observe the modulation of the individual LPA species, a second set of plasma samples was incubated at 37°C for 2 h prior to LC/MS analysis.

ML3R = test: Off-target screen ML3R; settings: 10 µM; single point, duplicates
[4] = target: T19, Norepinephrine transporter (Homo sapiens, UniProt P23975); test: Off-target screen Norepinephrine transporter; format: binding; settings: 10 µM; single point, duplicates
T19 construct: purchased Eurofins CEREP SA

PPARγ [5] = target: T7, PPARγ; test: Off-target screen PPARγ, agonist mode; format: cell-based; settings: 10 µM, single point, duplicates
[6] = In vitro microsomal stability, rat; format: in vitro ADME; settings: rat microsomes, 1 µM; value of 10 = low clearance, essentially below detection limit
Procedure: as §1

PDE-5 = target: T20, PDE-5 (Homo sapiens, UniProt O76074); test: Off-target screen PDE-5; format: biochemical; settings: 10 µM; single point, duplicates
T20 construct: purchased Eurofins CEREP SA

5HT2a = target: T21, 5HT2a (Homo sapiens, UniProt P28223); test: Off-target screen 5HT2a; format: binding; settings: 10 µM; single point, duplicates
T21 construct: purchased Eurofins CEREP SA

[7] = plasma, po, 20 mg/kg/day, food admix (FA), 20 mg/kg per day

T7 sequence (P37231 whole entry): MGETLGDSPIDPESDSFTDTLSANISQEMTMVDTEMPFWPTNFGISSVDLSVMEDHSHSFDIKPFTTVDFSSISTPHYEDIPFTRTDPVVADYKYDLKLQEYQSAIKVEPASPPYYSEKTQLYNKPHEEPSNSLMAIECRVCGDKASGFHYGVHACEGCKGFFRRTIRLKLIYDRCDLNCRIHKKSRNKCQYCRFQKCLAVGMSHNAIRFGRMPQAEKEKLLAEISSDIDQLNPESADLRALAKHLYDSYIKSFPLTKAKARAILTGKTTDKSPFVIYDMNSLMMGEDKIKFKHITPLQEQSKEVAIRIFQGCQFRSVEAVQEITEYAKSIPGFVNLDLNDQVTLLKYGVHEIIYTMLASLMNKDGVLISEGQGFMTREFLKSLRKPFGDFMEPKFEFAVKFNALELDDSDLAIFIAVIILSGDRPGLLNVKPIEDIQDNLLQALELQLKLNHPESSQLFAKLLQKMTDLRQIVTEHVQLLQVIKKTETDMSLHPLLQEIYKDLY
T14 sequence (P14416 whole entry): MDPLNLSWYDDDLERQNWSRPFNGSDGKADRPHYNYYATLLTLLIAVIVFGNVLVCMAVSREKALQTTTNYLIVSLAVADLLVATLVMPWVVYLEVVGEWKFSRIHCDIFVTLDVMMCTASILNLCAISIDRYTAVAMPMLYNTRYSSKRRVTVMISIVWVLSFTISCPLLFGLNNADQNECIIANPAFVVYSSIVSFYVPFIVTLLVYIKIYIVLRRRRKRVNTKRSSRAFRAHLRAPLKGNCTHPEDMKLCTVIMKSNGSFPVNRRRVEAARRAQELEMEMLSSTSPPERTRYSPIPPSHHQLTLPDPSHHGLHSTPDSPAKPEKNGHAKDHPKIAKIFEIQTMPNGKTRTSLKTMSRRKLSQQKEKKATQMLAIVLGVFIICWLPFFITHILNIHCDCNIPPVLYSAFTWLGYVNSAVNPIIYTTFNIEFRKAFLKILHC
T5 sequence (P21397 whole entry): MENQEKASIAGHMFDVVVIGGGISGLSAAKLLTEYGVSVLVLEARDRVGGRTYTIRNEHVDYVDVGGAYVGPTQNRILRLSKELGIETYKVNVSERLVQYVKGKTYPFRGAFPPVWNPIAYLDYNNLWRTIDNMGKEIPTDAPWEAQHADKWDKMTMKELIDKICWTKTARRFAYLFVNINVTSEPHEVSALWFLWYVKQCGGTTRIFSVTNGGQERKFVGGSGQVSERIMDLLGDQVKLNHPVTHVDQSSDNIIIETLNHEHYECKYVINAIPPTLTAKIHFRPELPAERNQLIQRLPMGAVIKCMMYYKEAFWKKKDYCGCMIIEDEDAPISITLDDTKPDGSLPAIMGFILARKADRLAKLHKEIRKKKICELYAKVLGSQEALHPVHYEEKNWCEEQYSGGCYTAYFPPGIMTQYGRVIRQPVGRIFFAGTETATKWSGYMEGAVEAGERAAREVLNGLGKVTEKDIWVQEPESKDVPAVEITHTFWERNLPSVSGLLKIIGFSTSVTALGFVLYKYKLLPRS
T19 sequence (P23975 whole entry): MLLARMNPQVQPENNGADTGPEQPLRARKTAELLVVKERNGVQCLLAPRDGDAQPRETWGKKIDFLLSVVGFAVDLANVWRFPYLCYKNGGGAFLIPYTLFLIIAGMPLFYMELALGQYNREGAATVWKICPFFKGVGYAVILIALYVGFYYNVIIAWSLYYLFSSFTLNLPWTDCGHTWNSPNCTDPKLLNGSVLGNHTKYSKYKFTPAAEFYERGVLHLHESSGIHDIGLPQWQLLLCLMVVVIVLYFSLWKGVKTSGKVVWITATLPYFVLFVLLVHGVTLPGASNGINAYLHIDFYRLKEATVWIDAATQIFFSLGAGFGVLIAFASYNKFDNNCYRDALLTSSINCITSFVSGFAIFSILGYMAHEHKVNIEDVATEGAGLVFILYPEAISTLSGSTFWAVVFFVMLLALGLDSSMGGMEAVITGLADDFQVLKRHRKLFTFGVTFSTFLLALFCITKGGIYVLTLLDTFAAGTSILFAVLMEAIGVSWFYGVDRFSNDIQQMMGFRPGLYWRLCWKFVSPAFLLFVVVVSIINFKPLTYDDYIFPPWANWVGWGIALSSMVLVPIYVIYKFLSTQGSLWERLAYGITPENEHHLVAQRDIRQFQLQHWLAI
T13 sequence (O95136 whole entry): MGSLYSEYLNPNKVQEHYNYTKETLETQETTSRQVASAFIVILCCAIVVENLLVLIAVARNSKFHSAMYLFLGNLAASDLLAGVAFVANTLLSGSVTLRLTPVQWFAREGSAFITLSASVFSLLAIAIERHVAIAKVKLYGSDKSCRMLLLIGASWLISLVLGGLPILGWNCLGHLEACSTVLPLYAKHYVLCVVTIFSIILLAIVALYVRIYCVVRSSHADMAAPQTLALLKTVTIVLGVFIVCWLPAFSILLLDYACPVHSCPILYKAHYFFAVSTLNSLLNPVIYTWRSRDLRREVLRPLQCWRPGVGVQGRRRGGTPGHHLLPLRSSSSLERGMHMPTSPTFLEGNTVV
T10 sequence (Q9UBY5 whole entry): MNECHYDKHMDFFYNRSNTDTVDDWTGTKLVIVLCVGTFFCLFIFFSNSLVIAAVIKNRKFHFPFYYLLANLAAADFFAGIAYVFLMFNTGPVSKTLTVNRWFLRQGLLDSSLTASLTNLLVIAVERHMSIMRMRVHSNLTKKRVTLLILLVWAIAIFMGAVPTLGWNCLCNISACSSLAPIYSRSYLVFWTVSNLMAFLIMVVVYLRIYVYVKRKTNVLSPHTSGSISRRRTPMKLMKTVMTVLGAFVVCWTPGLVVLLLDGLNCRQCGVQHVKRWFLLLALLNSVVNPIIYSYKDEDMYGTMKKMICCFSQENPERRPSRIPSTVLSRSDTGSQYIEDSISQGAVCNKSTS
T8 sequence (P30542 whole entry): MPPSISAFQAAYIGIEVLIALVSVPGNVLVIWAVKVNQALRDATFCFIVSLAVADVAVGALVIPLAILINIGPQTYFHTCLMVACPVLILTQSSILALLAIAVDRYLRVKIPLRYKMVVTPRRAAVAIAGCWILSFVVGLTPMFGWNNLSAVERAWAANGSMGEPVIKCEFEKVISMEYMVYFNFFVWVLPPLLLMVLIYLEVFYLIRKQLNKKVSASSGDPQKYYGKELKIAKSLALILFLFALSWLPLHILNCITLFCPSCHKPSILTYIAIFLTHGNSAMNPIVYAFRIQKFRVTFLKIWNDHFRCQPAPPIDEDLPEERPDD
T16 sequence (P43403 whole entry): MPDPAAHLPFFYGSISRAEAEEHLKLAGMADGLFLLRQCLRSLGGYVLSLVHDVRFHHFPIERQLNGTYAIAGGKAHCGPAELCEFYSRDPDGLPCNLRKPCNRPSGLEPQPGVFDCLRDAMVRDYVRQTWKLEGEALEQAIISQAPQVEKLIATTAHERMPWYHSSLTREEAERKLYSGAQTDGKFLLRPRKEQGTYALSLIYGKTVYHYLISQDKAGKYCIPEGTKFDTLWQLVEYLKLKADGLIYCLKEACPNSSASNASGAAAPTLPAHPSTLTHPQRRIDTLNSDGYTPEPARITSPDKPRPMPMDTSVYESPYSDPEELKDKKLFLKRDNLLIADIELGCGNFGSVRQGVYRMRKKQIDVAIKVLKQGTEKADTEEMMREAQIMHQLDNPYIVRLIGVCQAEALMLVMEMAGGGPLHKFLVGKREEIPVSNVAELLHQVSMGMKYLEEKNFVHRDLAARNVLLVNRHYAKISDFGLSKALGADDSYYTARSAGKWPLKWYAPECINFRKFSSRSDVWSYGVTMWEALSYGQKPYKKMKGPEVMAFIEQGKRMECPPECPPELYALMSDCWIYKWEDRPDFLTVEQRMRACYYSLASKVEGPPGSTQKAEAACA
T9 sequence (P03956 100-469): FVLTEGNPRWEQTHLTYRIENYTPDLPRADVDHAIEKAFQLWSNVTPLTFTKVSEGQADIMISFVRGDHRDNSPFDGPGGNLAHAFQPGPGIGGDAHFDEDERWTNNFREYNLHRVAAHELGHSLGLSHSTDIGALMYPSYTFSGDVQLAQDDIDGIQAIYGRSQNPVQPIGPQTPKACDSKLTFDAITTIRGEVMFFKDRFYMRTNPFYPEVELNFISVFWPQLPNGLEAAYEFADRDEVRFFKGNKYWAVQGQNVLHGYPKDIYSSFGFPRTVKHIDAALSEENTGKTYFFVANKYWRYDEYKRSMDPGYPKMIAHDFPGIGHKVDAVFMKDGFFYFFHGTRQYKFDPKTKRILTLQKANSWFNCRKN
T11 sequence (P43088 whole entry): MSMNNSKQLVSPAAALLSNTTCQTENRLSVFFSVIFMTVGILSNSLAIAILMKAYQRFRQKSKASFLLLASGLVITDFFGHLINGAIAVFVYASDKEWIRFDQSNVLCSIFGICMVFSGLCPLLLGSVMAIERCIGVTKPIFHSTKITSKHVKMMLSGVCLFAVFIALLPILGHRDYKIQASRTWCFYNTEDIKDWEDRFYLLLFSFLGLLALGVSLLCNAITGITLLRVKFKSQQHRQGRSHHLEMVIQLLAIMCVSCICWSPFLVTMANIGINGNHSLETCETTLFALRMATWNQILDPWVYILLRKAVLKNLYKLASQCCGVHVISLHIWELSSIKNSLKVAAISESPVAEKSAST
T6 sequence (P35348 whole entry): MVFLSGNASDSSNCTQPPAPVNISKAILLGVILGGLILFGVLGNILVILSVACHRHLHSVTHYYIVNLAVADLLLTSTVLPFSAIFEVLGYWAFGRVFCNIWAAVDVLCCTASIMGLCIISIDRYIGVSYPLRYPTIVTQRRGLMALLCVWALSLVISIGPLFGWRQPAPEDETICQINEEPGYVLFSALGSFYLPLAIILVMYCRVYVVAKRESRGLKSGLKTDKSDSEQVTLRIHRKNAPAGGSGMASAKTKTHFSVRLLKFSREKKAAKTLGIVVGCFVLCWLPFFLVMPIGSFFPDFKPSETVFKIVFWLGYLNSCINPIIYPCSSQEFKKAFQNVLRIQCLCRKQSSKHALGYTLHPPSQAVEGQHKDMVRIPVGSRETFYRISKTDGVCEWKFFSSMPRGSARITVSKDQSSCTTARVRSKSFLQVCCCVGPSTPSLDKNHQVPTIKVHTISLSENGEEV

## O=C(OCc1ccc(OC(F)(F)F)cc1)N1C[C@@H]2CN(C(=O)c3ccc4[nH]nnc4c3)C[C@H]2C1 [Compound 13, (3aS,6aS)-5-(1H-Benzotriazole-5-carbonyl)-hexahydro-pyrrolo[3,4-c]pyrrole-2-carboxylic acid 4-trifluoromethoxy-benzyl ester]
MMP-3
  MMP-3 (h) [% inhib]: 3 % inhib
[1]
  Mic CL m: 10/10/10 µL/m/mg prot
HDAC3
  HDAC3 (h) [% inhib]: 1 % inhib
GSK-3B
  GSK-3B (h) [% inhib]: -8 % inhib
HIV-1 protease
  HIV-1 protease (h) [% inhib]: 0 % inhib
Carbonic anhdrase II
  Carbonic anhdrase II (h) [% inhib]: -6 % inhib
MAO-A
  MAO-A (h) [% inhib]: -1 % inhib
Single dose PK in rats; [7]
  AUC(0-inf): 260 µg·h/mL
  Cmax: 2980 ng/mL
  Tmax: 17 h
  half-life: 13 h
Single dose PK in rats; plasma, iv bolus, 2 mg/kg
  AUC(0-inf): 21 µg·h/mL
  half-life: 2.6 h
Single dose PK in rats; plasma, iv bolus, 2 mg/kg, read-out: CLp
  clearance: 1.6 mL/min/kg
Single dose PK in rats; plasma, iv bolus, 2 mg/kg, read-out: Vdss
  Vd: 0.3 L/kg
Single dose PK in rats; plasma, oral gavage, 10 mg/kg
  AUC(0-inf): 130 µg·h/mL
  Cmax: 17700 ng/mL
  Tmax: 0.75 h
  half-life: 4.6 h
Single dose PK in rats; food admix (FA), 20 mg/kg per day
  Oral F: 80%
Single dose PK in rats; oral gavage, 10 mg/kg
  Oral F: 80%
PCP receptor
  PCP receptor (r) [% inhib]: -16 % inhib
Alpha1A-adrenoreceptor
  Alpha1A-adrenoreceptor (h) [% inhib]: 6 % inhib
PPARγ [2]
  PPARγ (h), antago. mode [% inhib]: 6 % inhib
Adenosine A1 respetor
  Adenosine A1 respetor (h) [% inhib]: 1 % inhib
MMP-1
  MMP-1 (h) [% inhib]: -9 % inhib
LPA3 receptor
  LPA3 receptor (h), agonist mode [% pos ctrl]: -3 % pos ctrl
Prostaglandin F receptor
  Prostaglandin F receptor (h) [% inhib]: 26 % inhib
MAO-B
  MAO-B (h) [% inhib]: 6 % inhib
S1P2
  S1P2 (h), agonist mode [% pos ctrl]: -2 % pos ctrl
Dopamine D2 receptor
  Dopamine D2 receptor (h) [% inhib]: 4 % inhib
Glucocorticoid receptor
  Glucocorticoid receptor (h) [% inhib]: 6 % inhib
ZAP70
  ZAP70 (h) [% inhib]: 9 % inhib
5HT2B
  5HT2B (h) [% inhib]: -3 % inhib
Sodium channel (site 2)
  Sodium channel (site 2) (r) [% inhib]: 49 % inhib
[3]
  Angiotensin II receptor 1 (h) [% inhib]: 14 % inhib
Plasma ATX
  IC50: ~1.47 nM
ML3R
  ML3R (h) [% inhib]: 48 % inhib
[4]
  Norepinephrine transporter (h) [% inhib]: 20 % inhib
PPARγ [5]
  PPARγ (h), agonist mode [% pos ctrl]: 0 % pos ctrl
[6]
  Mic CL r: 10/10/10 µL/m/mg prot
PDE-5
  PDE-5 (h) [% inhib]: 19 % inhib
5HT2a
  5HT2a (h) [% inhib]: 39 % inhib
